Results as given in the supplement of paper PMC11061612.

Assays:
Assay in all cases: combination Emax (second highest fraction inhibited in the dose matrix, 72 h); higher = more inhibition; extreme values may be limits of the assay
[1] = tested on: 23132-87 (Gastric Carcinoma)
Procedure, shortened: (§1)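 Cell lines grown in DMEM/F12 or RPMI with 10% FBS were plated in 1536-well plates and held 24 hours at 37°C, 5% CO2 before 72 hours of exposure to two-drug dose matrices, with DMSO typically at 0.2%. CellTiter-Glo 2.0 luminescence gave viability, which was converted to inhibition. Vehicle wells were set to 0 and blank wells to 1. Combination Emax is the second-highest inhibition in the matrix, and Bliss excess is the observed combination effect minus the expected EA + EB − EA·EB, where EA and EB are the single-agent effects.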

[2] = tested on: CAL-120 (Breast Carcinoma)
Procedure, shortened: as §1

[3] = tested on: FADU (Head and Neck Carcinoma)
Procedure, shortened: as §1

[4] = tested on: GP5d (Colorectal Carcinoma)
Procedure, shortened: as §1

[5] = tested on: HEC-1 (Endometrial Carcinoma)
Procedure, shortened: as §1

[6] = tested on: HSC-39 (Gastric Carcinoma)
Procedure, shortened: as §1

[7] = tested on: IST-MES1 (Mesothelioma)
Procedure, shortened: as §1

[8] = tested on: KE-37 (T-Lymphoblastic Leukemia)
Procedure, shortened: as §1

[9] = tested on: LK-2 (Squamous Cell Lung Carcinoma)
Procedure, shortened: as §1

[10] = tested on: MFE-280 (Endometrial Carcinoma)
Procedure, shortened: as §1

[11] = tested on: MKN45 (Gastric Carcinoma)
Procedure, shortened: as §1

[12] = tested on: NCI-H2342 (Lung Adenocarcinoma)
Procedure, shortened: as §1

[13] = tested on: PC-3_[JPC-3] (Lung Adenocarcinoma)
Procedure, shortened: as §1

[14] = tested on: PSN1 (Pancreatic Carcinoma)
Procedure, shortened: as §1

[15] = tested on: RCM-1 (Colorectal Carcinoma)
Procedure, shortened: as §1

[16] = tested on: REH (B-Lymphoblastic Leukemia)
Procedure, shortened: as §1

[17] = tested on: RERF-GC-1B (Gastric Carcinoma)
Procedure, shortened: as §1

[18] = tested on: RERF-LC-Sq1 (Squamous Cell Lung Carcinoma)
Procedure, shortened: as §1

[19] = tested on: SF268 (Low Grade Glioma)
Procedure, shortened: as §1

[20] = tested on: VAL (B-Cell Non-Hodgkin's Lymphoma)
Procedure, shortened: as §1

SMILES: Cc1c2c(nn1C)CSCc1cc(n(C)n1)CSc1cc(c3ccccc3c1)OCCCc1c(C(=O)O)n(C)c3c-2c(Cl)ccc13 [AZD5991] + C[C@@H]1COCCN1C2=NC(=NC(=C2)C3(CC3)[S@](=N)(=O)C)C4=C5C=CNC5=NC=C4 [AZD6738] (first compound max 1 µM, 7x7, partner max 10 µM)
- combination Emax [1]: 0.979
- combination Emax [2]: 0.413
- combination Emax [3]: 0.985
- combination Emax [4]: 0.984
- combination Emax [5]: 0.404
- combination Emax [6]: 1
- combination Emax [7]: 0.285
- combination Emax [8]: 1
- combination Emax [9]: 0.357
- combination Emax [10]: 0.384
- combination Emax [11]: 0.807
- combination Emax [12]: 0.333
- combination Emax [13]: 0.37
- combination Emax [14]: 0.488
- combination Emax [15]: 0.801
- combination Emax [16]: 0.945
- combination Emax [17]: 1
- combination Emax [18]: 0.853
- combination Emax [19]: 0.692
- combination Emax [20]: 0.933

SMILES: COc1nnc2ccc(N3CCC(c4ccc(OCCN5CCN(C)C(=O)[C@H]5C)cc4)CC3)nn12 [AZD5153] + Cn1cnc2c(F)c(Nc3ccc(Br)cc3Cl)c(C(=O)NOCCO)cc21 [Selumetinib] (first compound max 1 µM, 7x7, partner max 10 µM)
- combination Emax [1]: 0.2
- combination Emax [2]: 0.479
- combination Emax [3]: 0.629
- combination Emax [4]: 0.887
- combination Emax [5]: 0.595
- combination Emax [6]: 0.76
- combination Emax [7]: 0.641
- combination Emax [8]: 0.654
- combination Emax [9]: 0.6
- combination Emax [10]: 0.361
- combination Emax [11]: 0.744
- combination Emax [12]: 0.347
- combination Emax [13]: 0.525
- combination Emax [14]: 0.818
- combination Emax [15]: 0.817
- combination Emax [16]: 0.469
- combination Emax [17]: 0.753
- combination Emax [18]: 0.79
- combination Emax [19]: 0.518
- combination Emax [20]: 0.738

SMILES: Cc1c2c(nn1C)CSCc1cc(n(C)n1)CSc1cc(c3ccccc3c1)OCCCc1c(C(=O)O)n(C)c3c-2c(Cl)ccc13 [AZD5991] + CCN(CCO)CCCOc1ccc2c(Nc3cc(CC(=O)Nc4cccc(F)c4)[nH]n3)ncnc2c1 [AZD2811] (first compound max 1 µM, 7x7, partner max 1 µM)
- combination Emax [1]: 0.924
- combination Emax [2]: 0.21
- combination Emax [3]: 0.986
- combination Emax [4]: 0.956
- combination Emax [5]: 0.217
- combination Emax [6]: 1
- combination Emax [7]: 0.266
- combination Emax [8]: 1
- combination Emax [9]: 0.962
- combination Emax [10]: 0.482
- combination Emax [11]: 0.408
- combination Emax [12]: 0.427
- combination Emax [13]: 0.274
- combination Emax [14]: 0.319
- combination Emax [15]: 0.347
- combination Emax [16]: 0.931
- combination Emax [17]: 0.998
- combination Emax [18]: 0.622
- combination Emax [19]: 0.472
- combination Emax [20]: 0.909

SMILES: CN(C)CCCOc1ccc(-c2ccc3ncc4c(c3c2)n(C2CCOCC2)c(=O)n4C)cn1 [AZD0156] + CCN(CCO)CCCOc1ccc2c(Nc3cc(CC(=O)Nc4cccc(F)c4)[nH]n3)ncnc2c1 [AZD2811] (first compound max 1 µM, 7x7, partner max 1 µM)
- combination Emax [1]: 0.118
- combination Emax [2]: 0.102
- combination Emax [3]: 0.228
- combination Emax [4]: 0.456
- combination Emax [5]: 0.0528
- combination Emax [6]: 0.935
- combination Emax [7]: 0.172
- combination Emax [8]: 1
- combination Emax [9]: 0.834
- combination Emax [10]: 0.47
- combination Emax [11]: 0.342
- combination Emax [12]: 0.145
- combination Emax [13]: 0.101
- combination Emax [14]: 0.362
- combination Emax [15]: 0.161
- combination Emax [16]: 0.481
- combination Emax [17]: 0.423
- combination Emax [18]: 0.306
- combination Emax [19]: 0.142
- combination Emax [20]: 0.801

SMILES: C[C@@H](c1ccc2nccn2c1)n1nnc2ncc(-c3cnn(C)c3)nc21 [Savolitinib] + CC1(C)CCC(CN2CCN(c3ccc(C(=O)NS(=O)(=O)c4ccc(NCC5CCOCC5)c([N+](=O)[O-])c4)c(Oc4cnc5[nH]ccc5c4)c3)CC2)=C(c2ccc(Cl)cc2)C1 [Venetoclax] (first compound max 1 µM, 7x7, partner max 1 µM)
- combination Emax [1]: 0.147
- combination Emax [2]: 0.0877
- combination Emax [3]: 0.154
- combination Emax [4]: 0.141
- combination Emax [5]: 0.133
- combination Emax [6]: 0.197
- combination Emax [7]: 0.198
- combination Emax [8]: 0.113
- combination Emax [9]: 0.165
- combination Emax [10]: 0.186
- combination Emax [11]: 0.831
- combination Emax [12]: 0.188
- combination Emax [13]: 0.129
- combination Emax [14]: 0.12
- combination Emax [15]: 0.121
- combination Emax [16]: 0.608
- combination Emax [17]: 0.128
- combination Emax [18]: 0.167
- combination Emax [19]: 0.104
- combination Emax [20]: 0.963

SMILES: CN(CCO)CC[C@H](CSc1ccccc1)Nc1ccc(S(=O)(=O)NC(=O)c2ccc(N3CCC([C@@H](O)c4ccccc4-c4ccc(Cl)cc4)CC3)cc2)cc1S(=O)(=O)C(F)(F)F [AZD4320] + C[C@@H](Nc1cc(F)cc(F)c1)c1cc(C(=O)N(C)C)cc2c(=O)cc(N3CCOCC3)oc12 [AZD8186] (first compound max 1 µM, 7x7, partner max 3 µM)
- combination Emax [1]: 0.74
- combination Emax [2]: 0.735
- combination Emax [3]: 0.846
- combination Emax [4]: 0.644
- combination Emax [5]: 0.392
- combination Emax [6]: 0.62
- combination Emax [7]: 0.325
- combination Emax [8]: 1
- combination Emax [9]: 0.794
- combination Emax [10]: 0.864
- combination Emax [11]: 0.345
- combination Emax [12]: 0.443
- combination Emax [13]: 0.562
- combination Emax [14]: 0.487
- combination Emax [15]: 0.532
- combination Emax [16]: 1
- combination Emax [17]: 0.549
- combination Emax [18]: 0.274
- combination Emax [19]: 0.66
- combination Emax [20]: 1
